{
  "source": "patent US20020035061A1",
  "about": "“COMPOSITIONS AND METHODS FOR TREATING INFECTIONS USING CATIONIC PEPTIDES ALONE OR IN COMBINATION WITH ANTIBIOTICS” (priority 1996, published 2002)",
  "experiment_in_all_cases": "microbe, parasite or virus in culture",
  "type_in_all_cases": "cell-based",
  "key": {"bacterial isolates": {"system": "bacterial isolates", "conditions": "for Peptide MIC Alone: 4. Gentamicin; for FIC: peptide + Gentamicin"}, "[1]": {"system": "inherently resistant microorganisms", "conditions": "for Peptide MIC Alone: Amikacin section; for FIC: peptide + Amikacin"}, "[2]": {"system": "microorganisms with acquired resistance", "conditions": "for Peptide MIC Alone: Gentamicin section; for FIC: peptide + Gentamicin"}, "[3]": {"system": "vancomycin / teicoplanin resistant enterococci", "conditions": "E. faecalis EFS008"}, "[4]": {"conditions": "S. maltophilia (strain line r400 not shown)"}},
  "data": [
    {"sequence": "KKAAAKAAAAAKAAWAAKAAAKKKK [Deber A2KA2, reference compound]", "values": [
      {"measurement": "Peptide MIC Alone", "setting": "bacterial isolates; A. baumannii ABI001", "value": ">128", "unit": "µg/mL"},
      {"measurement": "Peptide MIC Alone", "setting": "bacterial isolates; A. baumannii ABI002", "value": ">128", "unit": "µg/mL"},
      {"measurement": "Peptide MIC Alone", "setting": "bacterial isolates; A. calcoaceticus AC001", "value": ">128", "unit": "µg/mL"},
      {"measurement": "Peptide MIC Alone", "setting": "bacterial isolates; P. aeruginosa PA022", "value": ">128", "unit": "µg/mL"},
      {"measurement": "Peptide MIC Alone", "setting": "bacterial isolates; P. aeruginosa PA041", "value": ">128", "unit": "µg/mL"},
      {"measurement": "Peptide MIC Alone", "setting": "bacterial isolates; [4]", "value": ">128", "unit": "µg/mL"},
      {"measurement": "Peptide MIC Alone", "setting": "bacterial isolates; S. maltophilia SMA017", "value": ">128", "unit": "µg/mL"},
      {"measurement": "Gentamicin MIC + Peptide", "setting": "bacterial isolates; A. baumannii ABI001", "value": 32, "unit": "µg/mL"},
      {"measurement": "Peptide MIC + Gentamicin", "setting": "bacterial isolates; A. baumannii ABI001", "value": 8, "unit": "µg/mL"},
      {"measurement": "Gentamicin MIC + Peptide", "setting": "bacterial isolates; A. baumannii ABI002", "value": 32, "unit": "µg/mL"},
      {"measurement": "Peptide MIC + Gentamicin", "setting": "bacterial isolates; A. baumannii ABI002", "value": 0.125, "unit": "µg/mL"},
      {"measurement": "Gentamicin MIC + Peptide", "setting": "bacterial isolates; A. calcoaceticus AC001", "value": 4, "unit": "µg/mL"},
      {"measurement": "Peptide MIC + Gentamicin", "setting": "bacterial isolates; A. calcoaceticus AC001", "value": 16, "unit": "µg/mL"},
      {"measurement": "Gentamicin MIC + Peptide", "setting": "bacterial isolates; P. aeruginosa PA022", "value": 16, "unit": "µg/mL"},
      {"measurement": "Peptide MIC + Gentamicin", "setting": "bacterial isolates; P. aeruginosa PA022", "value": 4, "unit": "µg/mL"},
      {"measurement": "Gentamicin MIC + Peptide", "setting": "bacterial isolates; P. aeruginosa PA041", "value": 8, "unit": "µg/mL"},
      {"measurement": "Peptide MIC + Gentamicin", "setting": "bacterial isolates; P. aeruginosa PA041", "value": 0.125, "unit": "µg/mL"},
      {"measurement": "Gentamicin MIC + Peptide", "setting": "bacterial isolates; [4]", "value": 64, "unit": "µg/mL"},
      {"measurement": "Peptide MIC + Gentamicin", "setting": "bacterial isolates; [4]", "value": 0.125, "unit": "µg/mL"},
      {"measurement": "Gentamicin MIC + Peptide", "setting": "bacterial isolates; S. maltophilia SMA017", "value": 64, "unit": "µg/mL"},
      {"measurement": "Peptide MIC + Gentamicin", "setting": "bacterial isolates; S. maltophilia SMA017", "value": 0.125, "unit": "µg/mL"},
      {"measurement": "FIC", "setting": "bacterial isolates; A. baumannii ABI001", "value": 0.53},
      {"measurement": "FIC", "setting": "bacterial isolates; A. baumannii ABI002", "value": 0.50},
      {"measurement": "FIC", "setting": "bacterial isolates; A. calcoaceticus AC001", "value": 0.56},
      {"measurement": "FIC", "setting": "bacterial isolates; P. aeruginosa PA022", "value": 0.52},
      {"measurement": "FIC", "setting": "bacterial isolates; P. aeruginosa PA041", "value": 0.50},
      {"measurement": "FIC", "setting": "bacterial isolates; [4]", "value": 0.50},
      {"measurement": "FIC", "setting": "bacterial isolates; S. maltophilia SMA017", "value": 0.50},
      {"measurement": "Peptide MIC + Amikacin", "setting": "[1]; A. baumannii", "value": 32, "unit": "µg/mL"},
      {"measurement": "Peptide MIC Alone", "setting": "[1]; A. baumannii", "value": ">128", "unit": "µg/mL"},
      {"measurement": "Peptide MIC + Amikacin", "setting": "[1]; S. aureus MRSA", "value": 8, "unit": "µg/mL"},
      {"measurement": "Peptide MIC Alone", "setting": "[1]; S. aureus MRSA", "value": 16, "unit": "µg/mL"},
      {"measurement": "FIC", "setting": "[1]; A. baumannii", "value": 0.63},
      {"measurement": "FIC", "setting": "[1]; S. aureus MRSA", "value": 0.50},
      {"measurement": "Gentamicin MIC + Peptide", "setting": "[2]; A. calcoaceticus AC001", "value": 4, "unit": "µg/mL"},
      {"measurement": "Peptide MIC + Gentamicin", "setting": "[2]; A. calcoaceticus AC001", "value": 16, "unit": "µg/mL"},
      {"measurement": "Peptide MIC Alone", "setting": "[2]; A. calcoaceticus AC001", "value": ">128", "unit": "µg/mL"},
      {"measurement": "Gentamicin MIC + Peptide", "setting": "[2]; P. aeruginosa PA041", "value": 4, "unit": "µg/mL"},
      {"measurement": "Peptide MIC + Gentamicin", "setting": "[2]; P. aeruginosa PA041", "value": 64, "unit": "µg/mL"},
      {"measurement": "Peptide MIC Alone", "setting": "[2]; P. aeruginosa PA041", "value": ">128", "unit": "µg/mL"},
      {"measurement": "FIC", "setting": "[2]; A. calcoaceticus AC001", "value": 0.56},
      {"measurement": "FIC", "setting": "[2]; P. aeruginosa PA041", "value": 0.50},
      {"measurement": "Amikacin MIC + Peptide", "setting": "[3]", "value": 8, "unit": "µg/mL"},
      {"measurement": "Peptide MIC + Amikacin", "setting": "[3]", "value": 16, "unit": "µg/mL"},
      {"measurement": "Peptide MIC Alone", "setting": "[3]; Amikacin section", "value": ">128", "unit": "µg/mL"},
      {"measurement": "FIC", "setting": "[3]; peptide + Amikacin", "value": 0.19}
    ]}
  ]
}
